Experimental data as given in US20240382511A1, “NICOTINAMIDE MONONUCLEOTIDE DERIVATIVES AND USE THEREOF FOR THE TREATMENT OF HEART FAILURE WITH PRESERVED EJECTION FRACTION” (NUVAMID SA, priority 2021, published 2024).

Tests used:
Format in all cases: in vivo, hamster (Golden Syrian)
[1] = test system: free choice fed hamsters (diet-induced NASH hamster model of HFpEF); experiment: Body weight, food and water intake in diet-induced NASH hamster model of HFpEF; conditions: treatment once a day per os from week 15, 5 weeks (compound 001 600 mg/kg, vardenafil 10 mg/kg), FIG. 5
Description: (§1) Animals. Male hamsters (Golden Syrian), 4-week-old at receipt, were acclimated at least 5 days before the beginning of the study. Control animals were fed with a chow diet with normal tap water. For diet-induced NASH model, animals were fed with a free choice diet consisting of (a) a chow diet with normal water and (b) a high fat/cholesterol diet with 10% fructose enriched tap water. Food and water intake have been measured once a week. Dosage regimen and test groups. Animals were divided into 5 groups: [table] The study was conducted over 20 weeks. Treatments were administered from week 15 until the end of the experiment (duration 5 weeks), once a day, per os, at a rate of 10 ml/kg. Water was used as vehicle. Vardenafil was used as reference compound. Data analysis. All graphs represent means±standard error of mean (sem). Statistical analysis has been performed using GraphPad Prism 5 software. Single comparisons were made using Student's unpaired t-test or Mann Whitney in case of significant variance. […] During 20 weeks of diet including 5 weeks under treatment with vehicle, compound 001, vardenafil or both, body weight, food and water intake were recorded once a week. Blood was collected at week 14 and week 20 to measure plasma insulin, glucose and ALT/AST, and NT-pro BNP level was evaluated at week 20. Echocardiographic studies were assessed at week 14 and week 20. […]

[2] = test system: free choice fed hamsters (diet-induced NASH hamster model of HFpEF); experiment: Biochemical analysis (glucose, plasma insulin, ALT/AST, NT pro-BNP) in diet-induced NASH hamster model of HFpEF
Description: Animals. Male hamsters (Golden Syrian), 4-week-old at receipt, were acclimated at least 5 days before the beginning of the study. Control animals were fed with a chow diet with normal tap water. For diet-induced NASH model, animals were fed with a free choice diet consisting of (a) a chow diet with normal water and (b) a high fat/cholesterol diet with 10% fructose enriched tap water. Food and water intake have been measured once a week. Dosage regimen and test groups. Animals were divided into 5 groups: [table] The study was conducted over 20 weeks. Treatments were administered from week 15 until the end of the experiment (duration 5 weeks), once a day, per os, at a rate of 10 ml/kg. Water was used as vehicle. Vardenafil was used as reference compound. Biochemical analysis. After 14 and 20 weeks of diet, blood was collected through tail vein, saphenous vein or retro orbital sinus after a 6 h fasting period to measure respectively glucose, plasma insulin and ALT/AST. After 20 weeks of diet, blood was collected and centrifuged to obtain plasma which was used to measure NT pro-BNP in plasma. Data analysis. All graphs represent means±standard error of mean (sem). Statistical analysis has been performed using GraphPad Prism 5 software. Single comparisons were made using Student's unpaired t-test or Mann Whitney in case of significant variance. Multiple comparisons have been carried out with two-way ANOVA followed by post-hoc Bonferroni test or one-way ANOVA followed by post-hoc Dunnett or Kruskall-Wallis test in case of significant variance. For all tests, p<0.05 was considered significant.

[3] = test system: free choice fed hamsters (diet-induced NASH hamster model of HFpEF); experiment: Echocardiography (left ventricular function and dimensions) in diet-induced NASH hamster model of HFpEF; conditions: for cardiac parameters (overall conclusion): diet-induced NASH hamster model, end of 5-week treatment period
Description: Animals. Male hamsters (Golden Syrian), 4-week-old at receipt, were acclimated at least 5 days before the beginning of the study. Control animals were fed with a chow diet with normal tap water. For diet-induced NASH model, animals were fed with a free choice diet consisting of (a) a chow diet with normal water and (b) a high fat/cholesterol diet with 10% fructose enriched tap water. Food and water intake have been measured once a week. Dosage regimen and test groups. Animals were divided into 5 groups: [table] The study was conducted over 20 weeks. Treatments were administered from week 15 until the end of the experiment (duration 5 weeks), once a day, per os, at a rate of 10 ml/kg. Water was used as vehicle. Vardenafil was used as reference compound. Echocardiography. Left ventricular function and dimensions were assessed 14 and 20 weeks after the start of diet using two-dimensional echocardiograph (VF16-5 probe, Siemens, Acuson NX3 Elite). Numeric images of the heart were obtained in parasternal long and short-axis views using or not time motion for systolic function and in apical four chambers view with doppler mode for diastolic function. Heart rate, left ventricular end-diastolic and end-systolic diameters and volumes, as well as posterior and anterior wall thicknesses in diastole and systole, mitral flow velocity (E and A waves), the isovolumic relaxation time (IVRT), and annular tissue velocity of the mitral valve (e′ and a′ peaks) were measured. Left ventricular ejection fraction, fractional shortening, E/A ratio and E/E′ ratio were then calculated. Data analysis. All graphs represent means±standard error of mean (sem). Statistical analysis has been performed using GraphPad Prism 5 software. Single comparisons were made using Student's unpaired t-test or Mann Whitney in case of significant variance. Multiple comparisons have been carried out with two-way ANOVA followed by post-hoc Bonferroni test or one-way ANOVA followed by post-hoc Dunnett or Kruskall-Wallis test in case of significant variance. For all tests, p<0.05 was considered significant.

[4] = test system: free choice fed hamsters (diet-induced NASH hamster model of HFpEF); experiment: Organ weights (heart, liver, lungs), normalized or not to tibia length, in diet-induced NASH hamster model of HFpEF; conditions: normalized to tibia length; after 20 weeks of diet including 5 weeks of treatment per os (compound 001 600 mg/kg, vardenafil 10 mg/kg); FIG. 11
Description: as §1

Q: Which “body weight / body weight gain” value [1] does the source give for `NC(=O)c1ccc[n+]([C@@H]2O[C@H](COP(=O)([O-])O)[C@@H](O)[C@H]2O)c1` [compound 001, nicotinamide mononucleotide] here?
A: significant decrease in body weight

Q: And the plasma insulin levels ([2]; week 20, after 5 weeks of treatment per os (compound 001 600 mg/kg, vardenafil 10 mg/kg), FIG. 9C)?
A: tended to increase plasma insulin levels

Q: And the HOMA-IR index ([2]; week 20, after 5 weeks of treatment per os (compound 001 600 mg/kg, vardenafil 10 mg/kg), FIG. 9E)?
A: tended to increase plasma insulin levels and HOMA-IR index

Q: What about the “plasma AST” value ([2]; week 20, after 5 weeks of treatment per os, 600 mg/kg, FIG. 9B) of the same compound?
A: tendency to restore plasma AST

Q: And the “cardiac parameters (overall conclusion)” value [3]?
A: improved most of cardiac parameters

Q: What about the “cardiac parameters (overall conclusion)” value ([3]; listed as NMN) of the same compound?
A: improve cardiac parameters

Q: What about the diastolic function ([3]; echocardiography after 20 weeks of diet including 5 weeks of treatment per os (compound 001 600 mg/kg, vardenafil 10 mg/kg)) of the same compound?
A: improved diastolic function

Q: What about the E/A ratio ([3]; echocardiography after 20 weeks of diet including 5 weeks of treatment per os (compound 001 600 mg/kg, vardenafil 10 mg/kg), vs free choice vehicle, FIG. 8A) of the same compound?
A: significant decrease in E/A ratio

Q: What about the “E′/A′ ratio” value ([3]; echocardiography after 20 weeks of diet including 5 weeks of treatment per os (compound 001 600 mg/kg, vardenafil 10 mg/kg), vs free choice vehicle, FIG. 8B) of the same compound?
A: increased E′/A′ ratio

Q: What about the “E/E′ ratio” value ([3]; echocardiography after 20 weeks of diet including 5 weeks of treatment per os (compound 001 600 mg/kg, vardenafil 10 mg/kg), vs free choice vehicle, FIG. 8D) of the same compound?
A: E/E′ ratio decreased

Q: And the “isovolumic relaxation time (IVRT)” value ([3]; echocardiography after 20 weeks of diet including 5 weeks of treatment per os (compound 001 600 mg/kg, vardenafil 10 mg/kg), vs free choice vehicle, FIG. 8E)?
A: increased to normal levels

Q: What about the “lung oedema (difference between wet and dry lung weight)” value [4] of the same compound?
A: non significantly reduced
